# ChEMBL document CHEMBL1133169, “A light-inactivated antibiotic” (2000)
# How the values were obtained:
# [1] = The turnover kinetic parameter (kcat) evaluated for class C Q908R Beta-latctamase
# [2] = molecular target: Beta-lactamase TEM (Escherichia coli) (UniProt P62593); assay: The turnover kinetic parameter (kcat) evaluated for Class A TEM-1 beta-lactamase
# [3] = molecular target: Beta-lactamase TEM (Escherichia coli) (UniProt P62593); assay: The turnover kinetic parameter (kcat/Km) evaluated for class A TEM-1 Beta-latctamase
# [4] = The turnover kinetic parameter (kcat/Km) evaluated for class C Q908R Beta-latctamase
# [5] = The turnover kinetic parameter (Km) evaluated for Class C Q908R Beta-lactamase
# Chain of Beta-lactamase TEM (Escherichia coli) (P62593 whole entry): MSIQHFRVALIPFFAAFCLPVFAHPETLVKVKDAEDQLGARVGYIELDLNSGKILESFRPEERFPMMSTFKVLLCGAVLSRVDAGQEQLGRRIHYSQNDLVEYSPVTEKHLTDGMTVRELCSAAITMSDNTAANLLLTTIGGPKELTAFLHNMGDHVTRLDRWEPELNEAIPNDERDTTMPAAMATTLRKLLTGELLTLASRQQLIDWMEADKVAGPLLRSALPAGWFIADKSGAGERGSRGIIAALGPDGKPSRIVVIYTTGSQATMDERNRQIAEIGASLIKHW
compound,measurement,setting,value
CC(=O)OCC1=C(C(=O)O)N2C(=O)[C@@H](NC(=O)[C@@H](Cc3ccccc3)NNC(=O)OCc3ccccc3[N+](=O)[O-])C2SC1 (stereo not given in full),k cat,[1],1770 s⁻¹
same,k cat,[2],7.4 s⁻¹
same,k cat/Km,[3],93000 M⁻¹ s⁻¹
same,k cat/Km,[4],2.8e+07 M⁻¹ s⁻¹
same,Km,[5],62 µM
